Measurements reported in patent publication US20240260575A1, “AGRICULTURAL AND HORTICULTURAL FUNGICIDAL COMPOSITION” (Nippon Soda Co., Ltd., priority 2021, published 2024).

Experiments:
[1] = tested on: gray mold pathogen (Botrytis cinerea); assay: Gray mold antimicrobial test (growth inhibition rate); format: cell-based; conditions: Compound 3 (0.25 or 0.063 ppm) alone or mixed with component (II)
Method: (Test Example) Gray Mold Antimicrobial Test (Growth Inhibition Rate)
Conidiospores of a gray mold pathogen (Botrytis cinerea) were added to and dispersed in a yeast extract sucrose medium, and a component (I) and a component (II) dissolved in dimethyl sulfoxide at predetermined concentrations were further added and mixed thereto, and the resulting solution was dispensed onto a 96-well microplate and cultivated in the dark at 20° C. for 3 to 5 days. After the cultivation, the turbidity at a wavelength of 405 nm was measured by a microplate reader and compared with that in the untreated case to determine the growth inhibition rate (%) for the gray mold pathogen. The test was duplicately carried out. The results are shown in Tables 3 to 7 together with expected values calculated as follows.
Expected values were calculated by using Colby's equation: E=M+N−MN/100. Here, E denotes an expected value (%) of a growth inhibition rate, M denotes a growth inhibition rate (%) in using a component (I) alone, and N denotes a growth inhibition rate (%) in using a component (II) alone.
If the actually measured growth inhibition rate (%) of a composition of a component (I) and a component (II) is higher than the expected value, E, the composition of a component (I) and a component (II) is said to have exerted synergistic effect.

[2] = tested on: cucumber powdery mildew pathogen (Sphaerotheca fuliginea); assay: Cucumber powdery mildew control test; format: in vivo; set-up: scale not given here; conditions: Compound 3 0.4 ppm alone or mixed with component (II), sprayed onto cucumber seedlings
Description: (Test Example) Cucumber Powdery Mildew Control Test 1) Preparation of Drug Solution for Test […] The other components (II) were each formulated into an aqueous solution or suspension having a predetermined concentration. 2) Test A mixed solution of a component (I) and a component (II) at a predetermined concentration was sprayed onto cucumber seedlings (variety: “Shimo-shirazu, creeping type”, cotyledon stage). After natural drying at room temperature, conidiospores of a cucumber powdery mildew pathogen (Sphaerotheca fuliginea) were inoculated by blushing off, and the seedlings were kept in a thermostatic room at 20° C. using a 12 hour light/dark cycle for 7 to 10 days. The states of lesion development on leaves were examined by comparing with that for the untreated case, and the control values were determined. The test was duplicately carried out. The results are shown in Tables 8 to 12 together with expected values calculated as follows. Expected values were calculated by using Colby's equation: […] Here, E denotes an expected value of a control value, M denotes a control value in using a component (I) alone, and N denotes a control value in using a component (II) alone. If the actually measured control value of a composition of a component (I) and a component (II) is higher than the expected value, E, the composition of a component (I) and a component (II) is said to have exerted synergistic effect.

COc1ccc(F)cc1C(O)Cn1cc(/C(C)=N/OC(C)C)c(=O)n(C[C@H](C)NC(=O)C(C)C)c1=O (stereo partly drawn) [Compound 3, N-((2S)-1-(3-(2-(5-fluoro-2-methoxyphenyl)-2-hydroxyethyl)-5-((E)-1-(isopropoxyimino)ethyl)-2,6-dioxo-3,6-dihydropyrimidin-1(2H)-yl)propan-2-yl)isobutyramide]
growth inhibition rate ([1]; Table 5, Examination 1): 74%
growth inhibition rate ([1]; Table 5, Examination 2): 63%
growth inhibition rate ([1]; Table 5, Examination 3): 48%
growth inhibition rate ([1]; Table 5, Examination 4): 14%
control value ([2]; Table 10, Examination 1): 72
control value ([2]; Table 10, Examination 2): 68
control value ([2]; Table 10, Examination 3): 56
control value ([2]; Table 10, Examination 4): 61
control value ([2]; Table 10, Examination 5): 34
control value ([2]; Table 10, Examination 6): 67
control value ([2]; Table 10, Examination 7): 67
